Assay results as given in the Deep4Chem optical property database.

Experiment: solvent given as SMILES

c1ccc(N2c3ccccc3Sc3cc(-c4cccc5nc6ccccc6cc45)ccc32)cc1
emission maximum (in C1CCOC1): 476 nm
emission maximum (in CC#N): 504 nm
emission maximum (in CC(C)=O): 495 nm
emission maximum (in CC(C)OC(C)C): 546 nm
emission maximum (in CCCCCC): 487 nm
emission maximum (in CCCCOCCCC): 533 nm
emission maximum (in CCN(CC)CC): 525 nm
emission maximum (in CCOC(C)=O): 474 nm
emission maximum (in CCOCC): 549 nm
emission maximum (in CN(C)C=O): 495 nm
emission maximum (in ClCCl): 483 nm

CCOc1cc2c(cc1/C=C/C1=CC(=C(C#N)C#N)CC(C)(C)C1)c1ccccc1n2CC
emission maximum (in C1CCOC1): 610 nm
emission maximum (in CC#N): 629 nm
emission maximum (in CCO): 632 nm
emission maximum (in CCOC(C)=O): 591 nm
emission maximum (in CN(C)C=O): 635 nm
emission maximum (in CS(C)=O): 641 nm
emission maximum (in Cc1ccccc1): 578 nm
emission maximum (in ClC(Cl)Cl): 608 nm
emission maximum (in ClCCl): 617 nm

CC[N+](CC)=c1ccc2c(-c3ccccc3C(=O)O)c3oc4cc(N)ccc4c3oc-2c1
emission maximum (in CCO): 622 nm
emission maximum (in ClCCl): 617 nm
emission maximum (in O): 634 nm

CC/[NH+]=c1\cc2oc3cc(NCCC(=O)NC(CCC(=O)OC)C(=O)OC)c4ccccc4c3nc-2cc1C (stereo unspecified)
emission maximum (in CCO): 644 nm
emission maximum (in O): 652 nm

N#Cc1ccc(-n2c3ccccc3c3c2c2ccccc2n3-c2ccccc2)cc1
emission maximum (in Cc1ccccc1): 460 nm

Nc1cccc2c1ccc1[n+]2[B-](F)(F)n2c-1cc1c3ccccc3c3ccccc3c12
emission maximum (in ClCCl): 580 nm

CCN(C)c1ccc(C2=C3C(C)=CC(/C=C/c4ccc(OCC(=O)OC)cc4)=[N+]3[B-](F)(F)n3c(C)cc(C)c32)cc1
emission maximum (in CO): 581 nm

F[B-]1(F)n2c(c3ccccc3c2-c2ccccc2)C(c2ccccc2)=C2c3ccccc3C(c3ccccc3)=[N+]21
emission maximum (in ClCCl): 664 nm

COc1ccc(OC)c(C=O)c1
emission maximum (in CC(C)=O): 410 nm
emission maximum (in CCCO): 458 nm
emission maximum (in CCO): 459 nm
emission maximum (in CNC=O): 458 nm
emission maximum (in CO): 466 nm
emission maximum (in CS(C)=O): 431 nm
emission maximum (in ClC(Cl)Cl): 427 nm
emission maximum (in NC=O): 464 nm

CCCCCCN(CCCCCC)c1ccc(C#Cc2c(F)c(F)c(F)c(F)c2F)cc1
emission maximum (in CO): 464 nm
emission maximum (in ClCCl): 502 nm

CC(=O)c1nc(-c2ccc(N(c3ccccc3)c3ccccc3)cc2)oc1C
emission maximum (in CC#N): 452 nm
emission maximum (in CCCCCC): 385 nm
emission maximum (in CCO): 468 nm
emission maximum (in CCOC(C)=O): 419 nm
emission maximum (in CCOCC): 408 nm
emission maximum (in ClCCl): 448 nm

c1cc2ccc3ccc4cc3c2cc1c1ccc2ccc3ccc(cc3c2c1)c1ccc2c(c1)c1cc4ccc1[C@]13OCCO[C@]21OCCO3
emission maximum (in Cc1ccccc1): 421 nm

CC1=C(I)C(C)=[N+]2C1=C(c1c(-c3ccccn3)nc3ccccn13)c1c(C)c(I)c(C)n1[B-]2(F)F
emission maximum (in ClCCl): 580 nm

[NH3+]c1ccc2c(c1)Cc1ccccc1-2
emission maximum (in O): 314 nm

N#Cc1c(N2CCCCC2)cc(-c2ccc3ccc4cccc5ccc2c3c45)c2c1-c1ccccc1C2
emission maximum (in C1CCOC1): 460 nm

CN(C)c1ccc(C2=Nc3sc4cc(Cl)ccc4[n+]3[B-](F)(F)O2)cc1
emission maximum (in C1CCOC1): 477 nm
emission maximum (in CC#N): 491 nm
emission maximum (in CC(C)=O): 488 nm
emission maximum (in Cc1ccccc1): 456 nm
emission maximum (in ClCCl): 473 nm

COc1ccc2c(c1)[nH]c1c3[nH]c4cc(OC)ccc4c3c3nsnc3c21
emission maximum (in CN(C)C=O): 544 nm
emission maximum (in Cc1ccccc1): 501 nm
emission maximum (in ClCCl): 540 nm

CCN(CC)c1ccc(-c2nc(Oc3ccc(-c4nc5ccccc5[nH]4)cc3)nc(Oc3ccc(-c4nc5ccccc5[nH]4)cc3)n2)cc1
emission maximum (in CN(C)C=O): 431 nm

CC1(C)C(/C=C/C=C/C=C/C=C2/N(CCCCCC(=O)O)c3ccc(S(=O)(=O)[O-])cc3C2(C)C)=[N+](CCCCCC(=O)O)c2ccc(S(=O)(=O)[O-])cc21
emission maximum (in CO): 773 nm
emission maximum (in O): 771 nm

c1ccc(C2=C3C4=C(C5=[N+]3[B-]3(Oc6ccccc65)Oc5ccccc5-c5c6c(c2n53)C2CCC6CC2)C2CCC4CC2)cc1 (stereo unspecified)
emission maximum (in ClCCl): 645 nm

Cc1nn(-c2ccccc2)c(C2=NN(c3ccc(Br)cc3)[C@@H](c3ccccc3)[C@@H]2c2ccccc2)c1C#N
emission maximum (in C1CCCCC1): 468 nm
emission maximum (in C1CCOC1): 483 nm
emission maximum (in C1COCCO1): 481 nm
emission maximum (in CC#N): 491 nm
emission maximum (in CCCCCCC): 467 nm
emission maximum (in CCO): 493 nm
emission maximum (in CN(C)C=O): 492 nm
emission maximum (in CO): 496 nm
emission maximum (in O): 485 nm
emission maximum (in OCCO): 500 nm

Fc1c(F)c(-n2c3ccccc3c3ccccc32)c(F)c(F)c1/C=C/C(=C(c1ccccc1)c1ccccc1)c1ccccc1
emission maximum (in Cc1ccccc1): 445 nm

O=c1c2cc(F)c(O)cc2n(Cc2ccccc2)c2cc(O)c(F)cc12
emission maximum (in CCO): 431 nm

c1ccc(N(c2ccccc2)c2ccc(-c3ccc4c(c3)C3(c5ccccc5Sc5ccccc53)c3cc(-c5ccc(N(c6ccccc6)c6ccccc6)cc5)ccc3-4)cc2)cc1
emission maximum (in ClCCl): 457 nm
emission maximum (in c1cc(-n2c3ccccc3c3ccccc32)cc(-n2c3ccccc3c3ccccc32)c1): 438 nm

CC(C)[Si](C#Cc1c2nsnc2c(C#C[Si](C(C)C)(C(C)C)C(C)C)c2nc3c(nc12)Cc1ccccc1-3)(C(C)C)C(C)C
emission maximum (in CCCCCC): 551 nm

COc1ccc(-c2csc(/C(C#N)=N\Nc3ccc(C#N)cc3)n2)cc1
emission maximum (in CC#N): 505 nm
emission maximum (in CCO): 508 nm
emission maximum (in Cc1ccccc1): 494 nm
emission maximum (in ClCCl): 527 nm

C[Si](C)(C)c1cc2c(cc3ccc4cccc5ccc2c3c45)[nH]1
emission maximum (in CCOC(C)=O): 406 nm

c1ccc(-c2cc(-c3ccccc3)cc(-c3ccccc3)c2)cc1
emission maximum (in C1COCCO1): 354 nm

COc1cc(OC)c2c(c1)C(=O)c1ccccc1-2
emission maximum (in C1CCCCC1): 537 nm
emission maximum (in CC#N): 592 nm

FC(F)(F)c1ccc(-c2nnc(-c3cc(-n4c5ccccc5c5ccccc54)c(-n4c5ccccc5c5ccccc54)cc3-c3nnc(-c4ccc(C(F)(F)F)cc4)o3)o2)cc1
emission maximum (in CC#N): 544.97 nm
emission maximum (in Cc1ccccc1): 487 nm
emission maximum (in ClCCl): 519.92 nm

c1ccc2c(-n3c(-c4ccc(-c5ccc(-c6nc7c8ccccc8c8ccccc8c7n6-c6cccc7ccccc67)c6ccccc56)c5ccccc45)nc4c5ccccc5c5ccccc5c43)cccc2c1
emission maximum (in ClCCl): 428 nm

CN(C)c1ccc(C(=O)Nc2cccc(Cl)c2)cc1
emission maximum (in C1CCCCC1): 338 nm
emission maximum (in C1CCOC1): 455 nm
emission maximum (in CC#N): 496 nm
emission maximum (in CCOCC): 445 nm

Cc1ccc(/C2=c3\cc/c(o3)=C(\c3ccc(C)cc3)c3ccc([nH]3)-c3ccc4n3[P-](=O)(=O)[N+]3=C(C=CC3=C4c3cccs3)c3ccc2[nH]3)cc1
emission maximum (in ClC(Cl)Cl): 736 nm

O=c1oc2ccccc2cc1-c1ccc(-c2cc3ccccc3oc2=O)cc1
emission maximum (in CC#N): 426 nm
emission maximum (in CCO): 426 nm
emission maximum (in CCOC(C)=O): 426 nm
emission maximum (in CS(C)=O): 430 nm
emission maximum (in Cc1ccccc1): 424 nm
emission maximum (in ClC(Cl)Cl): 430 nm

COc1ccc(-n2c3ccccc3c3c(C)cc4ccccc4c32)cc1
emission maximum (in ClCCl): 367 nm

F[B-]1(F)n2c(-c3cccs3)cc(-c3ccccc3)c2N=C2C(c3ccccc3)=CC(c3cccs3)=[N+]21
emission maximum (in CC#N): 732 nm
emission maximum (in ClCCl): 740 nm

CC(C)(C)OC(=O)COc1ccc2c(c1)oc(=O)c1c(=O)oc3ccccc3c12
emission maximum (in CS(C)=O): 449 nm
emission maximum (in ClCCl): 440 nm

FC(F)(F)c1c(-n2c3ccccc3c3ccccc32)c(-n2c3ccccc3c3ccccc32)cc(-n2c3ccccc3c3ccccc32)c1-n1c2ccccc2c2ccccc21
emission maximum (in ClCCl): 440 nm

CC(=O)Nc1ccc2c3cccc4cccc(c5cccc1c52)c43
emission maximum (in C1COCCO1): 471 nm
emission maximum (in CC#N): 471 nm
emission maximum (in CCCCOCCCC): 471 nm
emission maximum (in CCOC(C)=O): 471 nm

CN(C)c1ccc2c3c(ccc2c1)CCCC3=O
emission maximum (in C1CCCCC1): 449 nm
emission maximum (in CC#N): 523 nm
emission maximum (in CC(C)O): 520 nm
emission maximum (in CCC(C)=O): 517 nm
emission maximum (in CCO): 495 nm
emission maximum (in CCOC(C)=O): 506 nm
emission maximum (in CS(C)=O): 538 nm
emission maximum (in Cc1ccccc1): 478 nm
emission maximum (in ClCCl): 511 nm
emission maximum (in Clc1ccccc1): 498 nm

CC(C)(C)c1ccc(C2=CC(c3ccccc3)=[N+]3C2=Nc2c(-c4ccc(C(C)(C)C)cc4)cc(-c4ccccc4)n2[B-]3(F)F)cc1
emission maximum (in C1CCOC1): 681 nm
emission maximum (in Cc1ccccc1): 683 nm
emission maximum (in ClC(Cl)Cl): 680 nm

Cc1ccc(-c2c3nc(c(-c4ccc(C)cc4)c4ccc([nH]4)c(-c4ccc(OC(=O)C(C)c5ccc(Oc6ccccc6)cc5)cc4)c4nc(c(-c5ccc(C)cc5)c5ccc2[nH]5)C=C4)C=C3)cc1 (stereo unspecified)
emission maximum (in ClCCl): 653 nm

O=Cc1ccc2c(c1)c1ccccc1n2-c1ccc(-c2ccc(-n3c4ccccc4c4cc(C=O)ccc43)cc2)cc1
emission maximum (in ClCCl): 405 nm

Cc1cc(C)c(C2=C3C=C(/C=C/C(=O)OCc4ccccc4)C=[N+]3[B-](F)(F)n3cccc32)c(C)c1
emission maximum (in ClCCl): 568 nm

CC1=C(c2ccccc2)C(C)=[N+]2C1=C(c1c(-c3ccccn3)nc3ccccn13)c1c(C)cc(C)n1[B-]2(F)F
emission maximum (in ClCCl): 566 nm
